Source: patent publication EP4324461A1, “(E)-N-CINAMOYLAMINOALKANOLES WITH MELANOGENESIS INHIBITORY ACTIVITY” (UNIWERSYTET JAGIELLONSKI, priority 2022, dated 2024)

How the values were obtained:
neuroblastoma SH-SY5Y = test: Safety, LDH test in SH-SY5Y; format: cell-based; conditions: 48 hours, positive control Triton X-100
Experimental: In order to test the safety of the compounds, both normal human cells were used: keratinocytes (HaCaT), fibroblasts (BJ), primary melanocytes that occur in the skin, as well as human cancer cells: the hepatocarcinoma line HepG2 and the neuroblastoma line SH-SY5Y, which are considered a model for the assessment of hepatocytotoxicity and neurocytotoxicity. The concentrations of the tested compounds in the range of 250-100 µM were used in the studies. The cell lines used in the research were purchased from the American Type Culture Collection (ATCC) and were cultured in media recommended by the manufacturer with the addition of FBS and antibiotics in an incubator ensuring appropriate culture conditions, i.e. humidity, temperature and CO2 concentration. Cells were seeded into multiwell plates and incubated with the test compounds for 48 hours. After this time, MTT and LDH tests were performed to assess cell viability. The MTT test is based on the ability to transform the substrate: [3-(4,5-dimethyl-2-thiazolyl)-2,5-diphenyl-2H-tetrazolium bromide into a colored product only by living cells. The absorbance at 570 nm, which corresponds to the absorption maximum for the product, is directly proportional to cell viability. The LDH test is based on testing the activity of the enzyme lactate dehydrogenase in the culture medium, which is released from cells as a result of damage to the cell membrane, e.g. as a result of cell death. Triton X-100 was used as a positive control in the test. The determination is colorimetric, the substrate is transformed by the released enzyme into a colored product, an increase in absorbance indicates a larger amount of the released enzyme, and thus confirms greater damage to cell membranes. Tables 7 and 8 present the results obtained, which correspond to the viability of cells incubated with the compounds in relation to the viability of cells constituting a control sample, i.e. incubated with the solvent (DMSO) at the same concentration as in the case of the groups tested in the MTT test or in relation to the results obtained for the Triton X-100 positive control in the LDH test. They indicate that the compounds are safe at the concentrations tested. Table 7. Viability of tested normal human cell lines: keratinocytes (HaCaT), fibroblasts (BJ) and primary melanocytes after incubation with the tested compounds - determination in the MTT test (% of solvent control ± SD) and LDH (percentage of positive control - Triton X-100.

S. typhimurium TA1537 = test: Ames microplate test, TA1537; format: cell-based, Salmonella typhimurium;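 also: reference level is the mean solvent-control yellow wells plus SD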
Experimental: Bacteria were grown overnight in growth medium.
Table 9. Ames microplate test results.

[1] = tested on: Balb/c 3T3 murine fibroblast cell line; test: Phototoxicity in Balb/c 3T3 fibroblasts (neutral red uptake); conditions: for phototoxic potential: Balb/c 3T3, neutral red uptake; for PIF: photoirritation factor: ratio of IC50 of unirradiated to irradiated cells; for cytotoxicity towards the mouse fibroblasts: with and without exposure to UVA
Experimental: Balb/c 3T3 cells, which are an immortalized murine fibroblast cell line, were purchased at ATTC and cultured in the medium recommended by the manufacturer (DMEM GlutaMAX, newborn calf serum (BCS), antibiotics). After multiplication, cells were placed in 96-well plates, which were incubated for 24 hours, after which all wells of the plates were washed with 150 µL of balanced salt solution (HBSS). Then, after drying the plates, 100 µL of a solution of the tested compounds in HBSS with 2% FBS was added to each well and incubated for an hour. After this time, some of the plates were irradiated using the Suntest CPS+ sunlight simulator from Atlas with appropriate filters cutting off radiation with a wavelength <320 nm (UVA radiation intensity 5 J/cm^2). The second part of the plates was placed in radiation-free conditions for the same period of time. After the exposure time, the liquid was removed from all plates and the wells were washed twice with 150 µL of HBSS, then supplemented with fresh culture medium and incubated for 24 hours in an incubator (37 °C, 5% CO2). Viability was assessed in the neutral red uptake test, which is based on the ability of the dye to penetrate only into living cells. Dye uptake was confirmed by absorbance measurement at 540 nm. […] The appropriate coefficients were also calculated: mean phototoxic effect (MPE) and photoirritation factor (PIF). PIF is the ratio of the IC50 values of unirradiated to irradiated cells, while MPE is based on the comparison of concentration-response curves. […]

SMILES	Neuroblastoma SH-SYSY LDH (neuroblastoma SH-SY5Y; 100 µM)	Neuroblastoma SH-SYSY LDH (neuroblastoma SH-SY5Y; 150 µM)	Neuroblastoma SH-SYSY LDH (neuroblastoma SH-SY5Y; 200 µM)	Neuroblastoma SH-SYSY LDH (neuroblastoma SH-SY5Y; 250 µM)	Increase in the number of yellow wells compared to the reference level (S. typhimurium TA1537; 0.5 mM, without S9)	Increase in the number of yellow wells compared to the reference level (S. typhimurium TA1537; 1.0 mM, without S9)	Increase in the number of yellow wells compared to the reference level (S. typhimurium TA1537; 2.0 mM, without S9)	phototoxic potential [1]	PIF [1]	cytotoxicity towards the mouse fibroblasts [1]	Increase in the number of yellow wells compared to the reference level (S. typhimurium TA1537; 0.5 mM, +S9)	Increase in the number of yellow wells compared to the reference level (S. typhimurium TA1537; 1.0 mM, +S9)	Increase in the number of yellow wells compared to the reference level (S. typhimurium TA1537; 2.0 mM, +S9)
Cc1ccc(/C=C/C(=O)NCCCCCO)cc1 [H-415/21, (2E)-N-(5-hydroxypentyl)-3-(4-methylphenyl)prop-2-enamide]	3.90 percentage of positive control	7.24 percentage of positive control	8.92 percentage of positive control	10.55 percentage of positive control	0.33	0.33	0.00	–	–	–	–	–	–
O=C(/C=C/c1ccc(Cl)cc1)NCCCO [H-330/21, (2E)-3-(4-chlorophenyl)-N-(3-hydroxypropyl)prop-2-enamide]	6.19 percentage of positive control	4.90 percentage of positive control	8.35 percentage of positive control	13.41 percentage of positive control	–	–	–	–	–	–	–	–	–
O=C(/C=C/c1ccc(Cl)cc1)NCCCCCO [Compound A-111, (2E)-3-(4-chlorophenyl)-N-(5-hydroxypentyl)prop-2-enamide]	4.90 percentage of positive control	4.61 percentage of positive control	5.98 percentage of positive control	6.77 percentage of positive control	0.80	0.54	0.54	do not have phototoxic potential	No phototoxicity	devoid of cytotoxicity	0.27	0.45	0.27
O=C(/C=C/c1ccc(Cl)cc1)NCCO [H-427/21, (2E)-3-(4-chlorophenyl)-N-(2-hydroxyethyl)prop-2-enamide]	3.09 percentage of positive control	4.45 percentage of positive control	5.98 percentage of positive control	8.87 percentage of positive control	–	–	–	–	–	–	–	–	–
O=C(/C=C/c1ccccc1)NCCCCCCO [H-425/21, (E)-N-(6-hydroxyhexyl)cinnamic acid amide]	–	–	–	–	0.09	0.18	0.82	–	–	–	1.33	0.00	1.00
O=C(/C=C/c1ccccc1)NCCCCCO [Compound A-133, (2E)-N-(5-hydroxypentyl)-3-phenylprop-2-enamide]	5.33 percentage of positive control	6.93 percentage of positive control	8.49 percentage of positive control	13.32 percentage of positive control	1.07	0.54	0.54	do not have phototoxic potential	No phototoxicity	devoid of cytotoxicity	0.18	0.36	0.27
